pEC50: −log10 of the molar value.
Biological target: T1, Human M4 (Homo sapiens, UniProt P08173)
T1 construct: expressed in transfected cells
T1 sequence (P08173 1-479): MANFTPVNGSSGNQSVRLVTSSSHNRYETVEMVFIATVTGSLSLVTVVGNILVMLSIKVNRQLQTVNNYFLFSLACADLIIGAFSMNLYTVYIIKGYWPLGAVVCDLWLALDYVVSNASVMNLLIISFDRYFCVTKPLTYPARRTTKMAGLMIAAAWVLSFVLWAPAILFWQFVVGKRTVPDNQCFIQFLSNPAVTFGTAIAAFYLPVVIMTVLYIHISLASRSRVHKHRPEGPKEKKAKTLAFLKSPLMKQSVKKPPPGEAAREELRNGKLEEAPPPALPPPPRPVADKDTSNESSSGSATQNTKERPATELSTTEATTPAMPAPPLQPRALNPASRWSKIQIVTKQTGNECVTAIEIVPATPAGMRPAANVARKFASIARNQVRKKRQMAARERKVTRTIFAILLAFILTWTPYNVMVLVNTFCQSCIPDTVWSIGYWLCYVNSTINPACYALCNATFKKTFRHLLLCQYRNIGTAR
Experiment: mAChR M4 cell-based functional assay (calcium flux, potentiation of EC20 acetylcholine response), hM4-Gqi5 CHO-K1 cells
Conditions: Table 4; for Emax at 30 µM: CHO-K1, Human M4, % ACh maximum at 30 μM, read-out: Emax (% ACh maximum at 30 μM); for pEC50: potentiation of EC20 acetylcholine response, calcium flux, CHO-K1 cells, read-out: Human M4 EC50
Summary of the method: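 CHO-K1 cells stably expressing human M4 with chimeric Gqi5, loaded with Fluo-4 AM 50 min at 37 °C; calcium flux read by FDSS. 11-point 1:3 compound curves added, then EC20 acetylcholine at 144 s; potentiation of the EC20 response fitted by four-parameter logistic to give EC50 and Emax.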

| SMILES | Emax at 30 µM [%] | pEC50 |
| --- | --- | --- |
| Cc1c(N2CCc3ncc(C(F)(F)F)cc3C2)nn2cnnc2c1C(F)(F)F [Compound 351, 6-(7-Methyl-8-(trifluoromethyl)-[1,2,4]triazolo[4,3-b]pyridazin-6-yl)-3-(trifluoromethyl)-5,6,7,8-tetrahydro-1,6-naphthyridine] | 77 | 5.85 |
| [2H]C1([2H])Cc2ncc(Nc3cc(C)ncc3F)cc2C([2H])([2H])N1c1nn2cnnc2cc1C [Compound 352, N-(5-fluoro-2-methylpyridin-4-yl)-6-(7-methyl-[1,2,4]triazolo[4,3-b]pyridazin-6-yl)-5,6,7,8-tetrahydro-1,6-naphthyridin-5,5,7,7-d4-3-amine] | 98 | 7.17 |
| [2H]C1([2H])Cc2ncc(Nc3cc(C)ncc3F)cc2C([2H])([2H])N1c1nn2cnnc2c(C)c1C [Compound 353, 6-(7,8-dimethyl-[1,2,4]triazolo[4,3-b]pyridazin-6-yl)-N-(5-fluoro-2-methylpyridin-4-yl)-5,6,7,8-tetrahydro-1,6-naphthyridin-5,5,7,7-d4-3-amine] | 99 | 7.66 |
| [2H]C1([2H])Cc2ncc(Nc3cccnc3C)cc2C([2H])([2H])N1c1nn2cnnc2cc1C [Compound 354, 6-(7-methyl-[1,2,4]triazolo[4,3-b]pyridazin-6-yl)-N-(2-methylpyridin-3-yl)-5,6,7,8-tetrahydro-1,6-naphthyridin-5,5,7,7-d4-3-amine] | 87 | 6.45 |
| [2H]C1([2H])Cc2ncc(Nc3ccncc3F)cc2C([2H])([2H])N1c1nn2cnnc2cc1C [Compound 355, N-(3-Fluoropyridin-4-yl)-6-(7-methyl-1,2,4[triazolo 4,3-b]pyridazin-6-yl)-5,6,7,8-tetrahydro-1,6-naphthyridin-5,5,7,7-d4-3-amine] | 94 | 7.85 |
| [2H]C1([2H])Cc2ncc(Nc3ccncc3C)cc2C([2H])([2H])N1c1nn2cnnc2cc1C [Compound 356, 6-(7-methyl-[1,2,4]triazolo[4,3-b]pyridazin-6-yl)-N-(3-methylpyridin-4-yl)-5,6,7,8-tetrahydro-1,6-naphthyridin-5,5,7,7-d4-3-amine] | 77 | 6.16 |
| [2H]C1([2H])Cc2ncc(Nc3ccncc3C)cc2C([2H])([2H])N1c1nn2cnnc2c(C)c1C [Compound 357, 6-(7,8-dimethyl-[1,2,4]triazolo[4,3-b]pyridazin-6-yl)-N-(3-methylpyridin-4-yl)-5,6,7,8-tetrahydro-1,6-naphthyridin-5,5,7,7-d4-3-amine] | 74 | 6.77 |

The remaining lines, values ahead:

| Emax at 30 µM [%] | pEC50 | SMILES |
| --- | --- | --- |
| 96 | 8.52 | [2H]C1([2H])Cc2ncc(Nc3ccncc3F)cc2C([2H])([2H])N1c1nn2cnnc2c(C)c1C [Compound 358, 6-(7,8-dimethyl-[1,2,4]triazolo[4,3-b]pyridazin-6-yl)-N-(3-fluoropyridin-4-yl)-5,6,7,8-tetrahydro-1,6-naphthyridin-5,5,7,7-d4-3-amine] |
| 116 | 8.15 | [2H]C1([2H])Cc2ncc(Nc3ccccc3F)cc2C([2H])([2H])N1c1nn2cnnc2cc1C [Compound 359, N-(2-fluorophenyl)-6-(7-methyl-[1,2,4]triazolo[4,3-b]pyridazin-6-yl)-5,6,7,8-tetrahydro-1,6-naphthyridin-5,5,7,7-d4-3-amine] |
| 100 | 8.30 | Cc1cc2nncn2nc1N1CCc2ncc(Nc3ccncc3F)cc2C1 [Compound 360, N-(3-fluoropyridin-4-yl)-6-(7-methyl-[1,2,4]triazolo[4,3-b]pyridazin-6-yl)-5,6,7,8-tetrahydro-1,6-naphthyridin-3-amine] |
| 100 | 8.70 | Cc1c(N2CCc3ncc(Nc4ccncc4F)cc3C2)nn2cnnc2c1C [Compound 361, 6-(7,8-dimethyl-[1,2,4]triazolo[4,3-b]pyridazin-6-yl)-N-(3-fluoropyridin-4-yl)-5,6,7,8-tetrahydro-1,6-naphthyridin-3-amine] |

From patent US20250002507A1, “7,8-DIHYDRO-5H-1,6-NAPHTHYRIDINE DERIVATIVES AS POSITIVE ALLOSTERIC MODULATORS OF THE MUSCARINIC ACETYLCHOLINE RECEPTOR M4 FOR TREATING NEUROLOGICAL AND PSYCHIATRIC DISORDERS” (Vanderbilt University, priority 2021, published 2025)
